Results: patent US20150105252A1, “SUBSTITUTED PYRAZOLES AS HERBICIDES” (E I DU PONT DE NEMOURS AND COMPANY, priority 2013, published 2015)

Tests used:
[1] = test system: morningglory; experiment: Test C postemergence; assay type: in vivo, Ipomoea coccinea; conditions: for Plant response rating (scale of 0 to 100 where 0 is no effect and 100 is complete control), Morningglory: Postemergence, 31 g ai/ha, visually evaluated after 13 to 15 days; for Morningglory plant response rating / Plant response rating, Morningglory: postemergence; for Morningglory plant response rating: 62 g ai/ha, scale 0 to 100
How it was run: (§1)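 Herbicidal effect is expressed as percent visual control (0–100) judged against untreated plants 13 to 15 days after treatment in the greenhouse. Preemergence pots contained seeds in a soil–sand blend; postemergence plants, 2–18 cm tall, grew in peat-based planting medium.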

[2] = test system: foxtail, giant; experiment: Test C postemergence; assay type: in vivo, Setaria faberii; conditions: for Plant response rating (scale of 0 to 100 where 0 is no effect and 100 is complete control), Foxtail, Giant: Postemergence, 31 g ai/ha, visually evaluated after 13 to 15 days; for Foxtail, Giant plant response rating / Plant response rating, Foxtail, Giant: postemergence; for Foxtail, Giant plant response rating: 62 g ai/ha, scale 0 to 100
How it was run: as §1

[3] = test system: ryegrass, Italian; experiment: Test C preemergence; assay type: in vivo, Lolium multiflorum
How it was run: as §1

[4] = test system: corn; experiment: Test C preemergence; assay type: in vivo, Zea mays
How it was run: as §1

[5] = test system: wheat; experiment: Test A preemergence; assay type: in vivo, Triticum aestivum; conditions: preemergence
How it was run: (§2)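 Injury readout: eye-scored versus untreated controls, 0 to 100. Exposure period: ~10 days, greenhouse. Application: soil-directed spray over sown seed (pre) or spray on seedlings 2–10 cm tall with one or two leaves (post), compound carried in non-phytotoxic solvent including surfactant.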

[6] = test system: foxtail, giant; experiment: Test A postemergence; assay type: in vivo, Setaria faberii
How it was run: as §2

[7] = test system: galium; experiment: Test C preemergence; assay type: in vivo, Galium aparine
How it was run: as §1

[8] = test system: waterhemp; experiment: Test C preemergence; assay type: in vivo, Amaranthus rudis
How it was run: as §1

[9] = test system: barnyardgrass; experiment: Test C postemergence; assay type: in vivo, Echinochloa crus-galli; conditions: for Plant response rating (scale of 0 to 100 where 0 is no effect and 100 is complete control), Barnyardgrass: Postemergence, 31 g ai/ha, visually evaluated after 13 to 15 days; for Barnyardgrass plant response rating / Plant response rating, Barnyardgrass: postemergence; for Barnyardgrass plant response rating: 62 g ai/ha, scale 0 to 100
How it was run: as §1

[10] = test system: crabgrass, large; experiment: Test A preemergence; assay type: in vivo, Digitaria sanguinalis; conditions: preemergence
How it was run: as §2

[11] = test system: nutsedge, yellow; experiment: Test C preemergence; assay type: in vivo, Cyperus esculentus
How it was run: as §1

[12] = test system: morningglory; experiment: Test A postemergence; assay type: in vivo, Ipomoea spp.
How it was run: as §2

[13] = test system: crabgrass, large; experiment: Test A postemergence; assay type: in vivo, Digitaria sanguinalis
How it was run: as §2

[14] = test system: corn; experiment: Test A postemergence; assay type: in vivo, Zea mays
How it was run: as §2

[15] = test system: blackgrass; experiment: Test C postemergence; assay type: in vivo, Alopecurus myosuroides; conditions: for Plant response rating (scale of 0 to 100 where 0 is no effect and 100 is complete control), Blackgrass: Postemergence, 31 g ai/ha, visually evaluated after 13 to 15 days; for Blackgrass plant response rating / Plant response rating, Blackgrass: postemergence; for Blackgrass plant response rating: 62 g ai/ha, scale 0 to 100
How it was run: as §1

[16] = test system: galium; experiment: Test C postemergence; assay type: in vivo, Galium aparine; conditions: for Plant response rating (scale of 0 to 100 where 0 is no effect and 100 is complete control), Galium: Postemergence, 31 g ai/ha, visually evaluated after 13 to 15 days; for Galium plant response rating / Plant response rating, Galium: postemergence; for Galium plant response rating: 62 g ai/ha, scale 0 to 100
How it was run: as §1

[17] = 250 g ai/ha, scale 0 to 100 (0 no effect, 100 complete control)
[18] = 125 g ai/ha, scale 0 to 100, 0 no effect, 100 complete control
[19] = Preemergence, rate head not shown (block before 16 g ai/ha), scale 0 to 100
[20] = preemergence, 62 g ai/ha, scale 0 to 100 (0 no effect, 100 complete control), 13 to 15 days
[21] = preemergence, 125 g ai/ha, 13 to 15 days, scale 0 to 100, 0 = no effect, 100 = complete control
[22] = preemergence, 250 g ai/ha, scale 0 to 100, 0 is no effect, 100 is complete control
[23] = 125 g ai/ha, visual injury approx. 10 days after treatment
[24] = Postemergence, 125 g ai/ha, 0 to 100 scale, 0 no effect, 100 complete control
[25] = Postemergence, 500 g ai/ha, 0 to 100 scale (0 no effect, 100 complete control)
[26] = 500 g ai/ha, visual injury after approx. 10 days, 0 to 100 scale (0 no effect, 100 complete control)
[27] = preemergence, 31 g ai/ha, visual rating, scale 0 to 100 (0 no effect, 100 complete control), 13 to 15 days
[28] = preemergence, 125 g ai/ha, scale 0 to 100, 0 is no effect, 100 is complete control
[29] = 125 g ai/ha, visual injury, 0 to 100 scale, approx. 10 days
[30] = Postemergence, 500 g ai/ha, visual rating after approx. 10 days, 0 to 100 scale (0 no effect, 100 complete control)
[31] = postemergence, 125 g ai/ha, about 10 days, visual rating on 0 to 100 scale (0 no effect, 100 complete control)

CCc1cc(C(=O)NC2CC2)nn1Cc1ccnc(Br)c1 [Compound 220]
95: Waterhemp plant response rating [8, 20]
75: Plant response rating, Waterhemp [8, 19]
98: Galium plant response rating [7, 22]
60: Plant response rating, Galium [16, 18]
20: Plant response rating, Blackgrass [15, 17]
40: Plant response rating, Morningglory [1, 18] | Corn plant response rating [4, 22] | Corn plant response rating [14, 24] | Galium plant response rating [16]
100: Foxtail, Giant plant response rating [6, 25] | Plant response rating, Waterhemp [8, 21] | Waterhemp plant response rating [8, 22] | Crabgrass, Large plant response rating (0 to 100 scale) [10, 23] | Crabgrass, Large plant response rating [10, 26] | Morningglory plant response rating [12, 25] | Crabgrass, Large plant response rating [13, 25]
50: Morningglory plant response rating [12, 24] | Plant response rating (scale of 0 to 100 where 0 is no effect and 100 is complete control), Galium [16]
10: Plant response rating (scale of 0 to 100 where 0 is no effect and 100 is complete control), Morningglory [1] | Plant response rating, Barnyardgrass [9, 18]
15: Plant response rating, Barnyardgrass [9, 17]
5: Foxtail, Giant plant response rating [2] | Plant response rating, Foxtail, Giant [2, 17] | Plant response rating, Foxtail, Giant [2, 18] | Plant response rating, Ryegrass, Italian [3, 21] | Ryegrass, Italian plant response rating [3, 22] | Plant response rating, Corn [4, 21] | Plant response rating, Galium [7, 19] | Plant response rating, Nutsedge, Yellow [11, 21] | Nutsedge, Yellow plant response rating [11, 22] | Plant response rating (scale of 0 to 100 where 0 is no effect and 100 is complete control), Blackgrass [15] | Blackgrass plant response rating [15] | Plant response rating, Blackgrass [15, 18]
55: Morningglory plant response rating [1]
0: Plant response rating (scale of 0 to 100 where 0 is no effect and 100 is complete control), Foxtail, Giant [2] | Plant response rating, Ryegrass, Italian [3, 19] | Ryegrass, Italian plant response rating [3, 20] | Plant response rating, Corn ([4]; Preemergence, rate head not shown (block before 16 g ai/ha), scale 0 to 100, 100 is complete control) | Corn plant response rating [4, 20] | Wheat plant response rating (0 to 100 scale) [5, 23] | Plant response rating (scale of 0 to 100 where 0 is no effect and 100 is complete control), Barnyardgrass [9] | Barnyardgrass plant response rating [9] | Plant response rating, Nutsedge, Yellow [11, 19] | Nutsedge, Yellow plant response rating [11, 20]
80: Galium plant response rating [7, 20] | Plant response rating, Galium [7, 21] | Plant response rating, Galium [16, 17]
70: Plant response rating, Morningglory [1, 17]
90: Foxtail, Giant plant response rating [6, 24] | Crabgrass, Large plant response rating [13, 24] | Corn plant response rating [14, 25]

CCCNC(=O)c1cc(CC)n(Cc2nc(C(F)(F)F)nn2C)n1 [Compound 109]
100: Plant response rating (scale of 0 to 100), Ryegrass, Italian ([3]; Preemergence, 250 g ai/ha) | Ryegrass, Italian plant response rating [3, 28] | Plant response rating (scale of 0 to 100), Corn ([4]; Preemergence, 250 g ai/ha) | Plant response rating (scale of 0 to 100), Galium ([7]; Preemergence, 250 g ai/ha) | Galium plant response rating [7, 20] | Galium plant response rating [7, 28] | Plant response rating (scale of 0 to 100), Waterhemp ([8]; Preemergence, 250 g ai/ha) | Waterhemp plant response rating [8, 20] | Waterhemp plant response rating [8, 28] | Crabgrass, Large plant response rating [10, 29] | Crabgrass, Large plant response rating [10, 26] | Morningglory plant response rating [12, 30]
85: Plant response rating, Morningglory [1, 17] | Corn plant response rating [4, 20]
20: Plant response rating, Barnyardgrass [9, 17]
5: Plant response rating (scale of 0 to 100 where 0 is no effect and 100 is complete control), Barnyardgrass [9] | Barnyardgrass plant response rating [9] | Nutsedge, Yellow plant response rating [11, 27] | Plant response rating (scale of 0 to 100 where 0 is no effect and 100 is complete control), Blackgrass [15] | Blackgrass plant response rating [15]
15: Plant response rating, Blackgrass [15, 17]
45: Plant response rating, Foxtail, Giant [2, 18]
40: Nutsedge, Yellow plant response rating [11, 28]
75: Plant response rating, Morningglory [1, 18] | Waterhemp plant response rating [8, 27]
70: Morningglory plant response rating [1]
60: Plant response rating (scale of 0 to 100), Nutsedge, Yellow ([11]; Preemergence, 250 g ai/ha)
10: Plant response rating (scale of 0 to 100 where 0 is no effect and 100 is complete control), Foxtail, Giant [2] | Foxtail, Giant plant response rating [2] | Ryegrass, Italian plant response rating [3, 27] | Galium plant response rating [7, 27] | Plant response rating, Barnyardgrass [9, 18] | Plant response rating, Blackgrass [15, 18]
90: Wheat plant response rating [5, 26] | Foxtail, Giant plant response rating [6, 30] | Foxtail, Giant plant response rating [6, 31] | Morningglory plant response rating [12, 31] | Crabgrass, Large plant response rating [13, 30] | Crabgrass, Large plant response rating [13, 31] | Corn plant response rating [14, 30]
25: Corn plant response rating [4, 27] | Nutsedge, Yellow plant response rating [11, 20]
30: Wheat plant response rating [5, 29]
50: Plant response rating, Foxtail, Giant [2, 17] | Ryegrass, Italian plant response rating [3, 20] | Plant response rating (scale of 0 to 100 where 0 is no effect and 100 is complete control), Galium [16] | Galium plant response rating [16]
95: Corn plant response rating [4, 28]
65: Plant response rating (scale of 0 to 100 where 0 is no effect and 100 is complete control), Morningglory [1] | Plant response rating, Galium [16, 18]
80: Corn plant response rating [14, 31] | Plant response rating, Galium [16, 17]
